Calls of active or inactive are those of the source.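 Rule for the calls: active = z-score above 3 at 5 µM with at least 500 cells counted in the well; inconclusive = wells under 500 cells, flagged as cytotoxic or low count; inactive = the rest.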
What follows are compounds tested on MIN6 insulin promoter-GFP reporter, high-content imaging (assay: up-regulation of insulin promoter-GFP reporter – imaging, high-content screening, mouse beta cells (AID 1625)).
With CCNc1ccc2noc3c2c1C(=O)c1ccccc1-3 the EC50 was > 16 µM (inactive). CCN(CC)c1ccc(/C=C2/SC(=O)N(C(C)C)C2=O)o1 showed an EC50 of 4.26 µM. With O=C(OCCN1C(=O)c2cccc3c(N4CCOCC4)ccc(c23)C1=O)c1ccc(Cl)cc1Cl the EC50 was 12.1 µM (inactive). COc1cc(OC)c(OC)cc1/C=C1\Oc2cc(OS(C)(=O)=O)ccc2C1=O was tested, and the EC50 was > 16 µM (inactive). In the case of O=[N+]([O-])c1ccc(/C=C/C2=NN(c3ccccc3)C(c3ccco3)C2)o1 (stereo not given), the EC50 is reported as > 16 µM (inactive). In the case of CCCCN1C(=O)/C(=C/C=C2\Oc3ccccc3N2CC)SC1=S, the EC50 is reported as 0.958 µM. Compound Cc1cccc(N=Cc2[nH]c3ccc(Br)c(Cl)c3c2O)c1 has an EC50 of 4.86 µM. CN1CCN(c2ccc(/C=C3\C(=O)NC(=S)N(c4cccc(Br)c4)C3=O)o2)CC1 was tested, and the EC50 was > 16 µM (inactive). With CN1C2CCC1/C(=C/c1cccn1C)C(=O)/C2=C\c1cccn1C the EC50 was > 16 µM (inactive). Compound CCN1CC=C2C(C#N)=C(N)C(C#N)(C#N)C(CCc3ccccc3)C2C1 (stereo not given) has an EC50 of 8.02 µM. For COc1ccc(C(=O)/C=C/c2ccc(N(C)C)cc2)c(OC)c1, the EC50 was 6.31 µM. COc1ccccc1N/C=C/c1onc(C)c1[N+](=O)[O-] was tested, and the EC50 was 2.22 µM. Compound CCN1CC=C2C(C#N)=C(N)C(C#N)(C#N)C(c3cc(Cl)ccc3Cl)C2C1 (stereo not given) has an EC50 of 8.66 µM. In the case of COc1ccc2c(n1)Sc1nc3ccccc3nc1N2, the EC50 is reported as > 16 µM (inactive). With CCCCCCN1C=CC(=C/C=C(\C#N)C(=O)OCC)C=C1 the EC50 was 11 µM (inactive). With Cc1cc(N2CCCC2)ccc1/C=C1/C(=O)N(C)C(=S)N1C the EC50 was > 16 µM (inactive). With CN(C)c1ccc(/C=C2\CCC/C(=C\c3ccccc3)C2=O)cc1 the EC50 was > 16 µM (inactive). In the case of Cc1[nH]c2ccccc2c1/C=N/Nc1ccc([N+](=O)[O-])cc1S(=O)(=O)Nc1ccc(Cl)cc1, the EC50 is reported as > 16 µM (inactive). In the case of O=C(O)c1cc(-c2ccc(/C=C3/SC(=S)N(Cc4ccccc4)C3=O)o2)ccc1Cl, the EC50 is reported as 10.5 µM (inactive). COc1ccc(NC(=O)/C(C#N)=C\c2ccc(N3CCOCC3)o2)cc1 showed an EC50 of 9.14 µM. For Oc1ccc(/C=N/Nc2ccnc3cc(Cl)ccc23)c(O)c1, the EC50 was > 16 µM (inactive). O=C(/C=C/c1cn(CC(O)CN2CCCCCC2)c2ccccc12)c1cccs1 (stereo not given) was tested, and the EC50 was > 16 µM (inactive). Cc1[nH]c2ccccc2c1/C=N/Nc1ccc([N+](=O)[O-])cc1 was tested, and the EC50 was 9.3 µM. With CCCCN1C(=O)/C(=C/C=C2\N(C)c3ccccc3C2(C)C)SC1=S the EC50 was 5.6 µM. With C=CCN1C(=O)/C(=C/c2ccc(N3CCOCC3)o2)C(=O)NC1=S the EC50 was > 16 µM (inactive). With O=[N+]([O-])c1ccc(N/N=C/c2cn(Cc3ccc(F)cc3)c3ccccc23)nc1 the EC50 was > 16 µM (inactive). With O=C(/C=C/c1ccc(N2CCC(c3ccccc3)=N2)cc1)c1ccccc1 the EC50 was 2.6 µM. With N#C/C(=C\c1ccc(-c2ccc(C(=O)O)cc2)o1)c1nc2ccccc2[nH]1 the EC50 was > 16 µM (inactive). In the case of CCN(CC)c1ccc(/C=N/c2sc3c(c2C#N)C2CCN3CC2)c(O)c1, the EC50 is reported as 2.83 µM. Compound Nc1c(C(=O)c2ccc(Cl)cc2)sc2nsc(SCCN3CCOCC3)c12 has an EC50 of 5.95 µM. O=C1S/C(=C/c2ccc(N3CCOCC3)o2)C(=O)N1Cc1c(F)cccc1Cl showed an EC50 of 1.76 µM. Compound O=c1oc2c3c4c(cc2c(C(F)(F)F)c1CCN1CCOCC1)CCCN4CCC3 has an EC50 of 6.05 µM. For COC(=O)c1cc2c(-c3ccccc3)cc3ccccn3c-2c1C(=O)OC, the EC50 was > 16 µM (inactive). CCOC(=O)N1CCN(/C=C(\C#N)c2nc3ccccc3s2)CC1 was tested, and the EC50 was > 16 µM (inactive). In the case of Cc1csc(NC(=O)c2sc3nc(-c4cccs4)ccc3c2N)n1, the EC50 is reported as > 16 µM (inactive). Work on CC(C)N1CC=C2C(C#N)=C(N)C(C#N)(C#N)[C@H](c3ccoc3)[C@H]2C1 yielded an EC50 of 8.51 µM. CN1C(=S)N(c2cccnc2)C(=O)/C1=C\c1ccc(N(C)C)cc1 was tested, and the EC50 was > 16 µM (inactive). With Cc1ccc(NS(=O)(=O)c2cc([N+](=O)[O-])ccc2N/N=C/c2sc(N3CCOCC3)nc2-c2ccccc2)c(C)c1 the EC50 was > 16 µM (inactive). In the case of CC(C)N1CCc2c(sc(NC(=O)c3cc4cc([N+](=O)[O-])ccc4s3)c2C(N)=O)C1, the EC50 is reported as > 16 µM (inactive). In the case of N#C/C(=C\c1ccc(N2CCOCC2)o1)c1ccccc1, the EC50 is reported as > 16 µM (inactive). Compound CCOC(=O)CC1C(=O)NCCN1c1nc2ccc(C)cn2c(=O)c1/C=C1\SC(=S)N(C(C)CC)C1=O (stereo not given) has an EC50 of 0.748 µM. With COc1ccc2nc(SCC(C)=O)c(C#N)cc2c1 the EC50 was 8.2 µM. N#C/C(=C/c1ccc(-c2ccccc2)o1)c1nc(-c2cccs2)cs1 showed an EC50 of 0.98 µM. Compound CCOC(=O)CC1C(=O)NCCN1c1nc2ccc(C)cn2c(=O)c1/C=C1\SC(=S)N(CC(C)C)C1=O (stereo not given) has an EC50 of 6.84 µM. CCOC(=O)/C(=C\C=C1/Sc2cc(OCC)c(OCC)cc2N1CC)C(C)=O was tested, and the EC50 was 6.72 µM. With Cc1cccn2c(=O)c(/C=C3\SC(=S)NC3=O)c(NCCCN3CCOCC3)nc12 the EC50 was 12.2 µM (inactive). In the case of CSc1c(C#N)c(N)nc2sc(C(=O)c3ccc(Cl)c(Cl)c3)c(N)c12, the EC50 is reported as > 16 µM (inactive). With Cc1ccc(N2C(=O)c3cccc4c(N5CCN(C)CC5)ccc(c34)C2=O)c2cccnc12 the EC50 was 10.3 µM (inactive). For CN1CC=C2C(C#N)=C(N)C(C#N)(C#N)C(c3cccc(Cl)c3Cl)C2C1 (stereo not given), the EC50 was 11.9 µM (inactive). In the case of CN1CC=C2C(C#N)=C(N)C(C#N)(C#N)[C@H](c3cccs3)[C@H]2C1, the EC50 is reported as 11.1 µM (inactive). Work on CC(=O)c1sc2nc(-c3cccs3)cc(C(F)(F)F)c2c1N yielded an EC50 of 7.56 µM. With COc1ccc2c(C)cc(SCC(=O)N(C)C3CCS(=O)(=O)C3)nc2c1 (stereo not given) the EC50 was > 16 µM (inactive). For N#Cc1c(-c2ccco2)cc(C2CC2)nc1SCC(=O)c1ccccc1, the EC50 was > 16 µM (inactive). Oc1c(C=NCc2ccc(F)cc2)[nH]c2ccc(Br)c(Cl)c12 was tested, and the EC50 was > 16 µM (inactive). CN(C)c1ccc(/C=C/C(=O)c2c(O)c3ccccc3oc2=O)cc1 gave an EC50 of 0.726 µM. With COC(=O)c1cc(NC(=O)c2ccccc2)c(=O)oc1/C=C/Nc1ccc(Oc2ccccc2)cc1 the EC50 was 6.49 µM. With CC(=O)C1=C(C)NC(SCC(=O)c2ccc(Cl)c(Cl)c2)=C(C#N)C1c1ccco1 (stereo not given) the EC50 was > 16 µM (inactive). For Cc1ccc(C(=O)NN2C(=O)/C(=C/c3cn(C)c4ccccc34)SC2=S)cc1, the EC50 was > 16 µM (inactive). Work on N=c1oc2c3c4c(cc2cc1C(=O)Nc1ccccc1)CCCN4CCC3 yielded an EC50 of 0.699 µM. COc1ccc2c(c1)NC(c1ccc(N(C)C)cc1)c1cccn1-2 (stereo not given) was tested, and the EC50 was > 16 µM (inactive).
